Experimental data reported in patent US8952033B2, “4-anilinofuro[2,3-b]quinoline derivatives, their preparation processes, and pharmaceutical compositions comprising the same” (Kaohsiung Medical University, priority 2011, dated 2015).
Marks after values point to notes of the source that are not given here.

Experiments:
[1] = test system: CL1-5 (metastatic lung adenocarcinoma cell); assay: Preferential antiproliferative activity, CL1-5; assay type: cell-based
Experimental: (§1) Determination of GI50 of compounds 13a, 13c, 14a, 14c, 15a, 16a was conducted substantially according to the method as described in the preceding section A entitled “Evaluation of antiproliferative activity”, except that the normal cell line MRC-5 was also utilized, and that camptothecin and daunorubicin were tested instead of compounds 1, 2, 3. The concentration of the respective test compound, which can reduce absorbance by 50% (compared with DMSO), is regarded as GI50, and can be determined via dose-response curves. Determination of GI50 was conducted thrice for each test compound. GI50 is expressed as mean±SD.
(§2) SI stands for selectivity index and was calculated by substituting GI50 into the following formula: D=E/F (2) where • D=SI • E=GI50 of the respective test compound for cells of the normal cell line • F=GI50 of the respective test compound for cells of the cancer cell line The experimental results are summarized in Table 4. […]

[2] = test system: PC-3 (human prostate cancer cell); assay: Preferential antiproliferative activity, PC-3; assay type: cell-based
Experimental: as §1, §2

[3] = test system: MCF-7 (breast cancer cell); assay: MTT antiproliferative assay (cell growth %, GI50), MCF-7; assay type: cell-based
Method in brief: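 Cells exposed to compounds in DMSO or vehicle for 48 hours; MTT (2 mg/mL) added before and after treatment for 2 hours, formazan dissolved in DMSO and OD570 read. GI50 from three determinations, reported as mean±SD.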

[4] = test system: MRC-5 (human lung fibroblast cell); assay: GI50 determination on normal cell line MRC-5; assay type: cell-based; conditions: MRC5, normal cell line, mean±SD, read-out: GI50 MRC-5
Experimental: Antiproliferative activities of the compounds of this invention were evaluated substantially according to the method as described in Tseng, C. […] The cells were treated with the test compounds, i.e., the compounds of this invention (in dimethylsulfoxide (DMSO)), or DMSO for 48 hours.
Before and after the treatment with the test compounds or DMSO, 3-(4,5-dimethylthiazol-2-yl)-2,5-diphenyltetrazolium bromide (MTT, 2 mg/mL, 100 μL) was added to each of the cultures, followed by cultivation for 2 hours. The resultant formazan was dissolved by the addition of DMSO. Absorbance at 570 nm (OD570) was measured using a microtiter plate reader (Dynex MRX-II).
Determination of GI50 was conducted thrice for each test compound. GI50 is expressed as mean±SD.

[5] = test system: CE81T (human esophageal carcinoma cell); assay: Preferential antiproliferative activity, CE81T; assay type: cell-based
Experimental: as §1, §2

[6] = test system: NCI-H611; assay: Preferential antiproliferative activity, NCI-H611; assay type: cell-based
Experimental: as §1, §2

[7] = Single-dose pharmacokinetic analysis in CD-1 mice; assay type: in vivo
Experimental: CD-1 mice were divided into two groups. The first group of mice (n=9) were used to assess the singe-dose pharmacokinetics of the test compounds after intravenous administration, and the second group of mice (n=9) were utilized to assess the singe-dose pharmacokinetics of the test compounds after oral administration. All of the mice were fasted from 4 hours before the administration of the test compounds until 4 hours after the administration of the test compounds.
The assessment for singe-dose pharmacokinetics of the test compounds after intravenous administration was performed as follows. The first group of mice were further randomly divided into three subgroups including compound 13a group (n=3), compound 14a group (n=3), and compound 1 group (n=3). Compounds 13a, 14a, 1 (in polyethylene glycol 400/ethanol/water (30/5/65, v/v/v)) were respectively administered to the mice in compound 13a group, compound 14a group, and compound 1 group at a dose of 2 mg/kg via tail vein injection. Blood samples (0.25 mL) were collected from the mice by virtue of cardiac puncture right before the intravenous administration, and at 2 min, 5 min, 15 min, 30 min, 1 hr, 1.5 hr, 2 hr, 4 hr, 6 hr, 9 hr, 24 hr, and 27 hr after the intravenous administration.
The assessment for singe-dose pharmacokinetics of the test compounds after oral administration was conducted as follows. The second group of mice were further randomly divided into three subgroups including compound 13a group (n=3), compound 14a group (n=3), and compound 1 group (n=3). Compounds 13a, 14a, 1 (in 0.5% methylcellulose) were respectively administered to the mice in compound 13a group, compound 14a group, and compound 1 group at a dose of 20 mg/kg via tube feeding. Blood samples (0.25 mL) were collected from the mice by virtue of cardiac puncture right before the oral administration, and at 15 min, 30 min, 1 hr, 1.5 hr, 2 hr, 4 hr, 6 hr, 9 hr, 24 hr, and 27 hr after the oral administration.
Each of the blood samples was placed in a 0.5 mL Microtainer® tube containing anticoagulant EDTA-K2, followed by mixing evenly. Centrifugation at 7000 g and 4° C. was conducted for 5 minutes. Plasma was collected and was mixed uniformly with a proper amount of acetonitrile, followed by centrifugation. The resultant supernatant was acquired, and was injected into a reversed-phase Biosil ODS column so as to determine the concentration of the respective test compound in plasma (i.e., the plasma concentration of the respective test compound) using a LC-MS/MS system (Waters 2795 LC and Micromass Quattro Ultima). The singe-dose pharmacokinetic parameters of the respective test compound were calculated from the obtained concentration of the respective test compound in plasma (i.e., the obtained plasma concentration of the respective compound) at different time points using WinNonlin Standard Program (version 3.1, Pharsight Corp.)

[8] = test system: BT483 (human breast carcinoma cell); assay: Preferential antiproliferative activity, BT483; assay type: cell-based
Experimental: as §1, §2

[9] = test system: A549 (human lung adenocarcinoma cell); assay: Preferential antiproliferative activity, A549; assay type: cell-based
Experimental: as §1, §2

[10] = intravenous administration, 2 mg/kg

C/C(=N\OCCN)c1ccc(Nc2c3ccccc3nc3occc23)cc1 [Compound 13a, (E)-1-(4-(furo[2,3-b]quinolin-4-ylamino)phenyl)ethanone O-2-aminoethyl oxime]
GI50 ([1]; CL1-5, result based on a single trial): 5.18 µM
SI CL1-5 ([1]; versus MRC-5): 8.27
GI50 ([2]; Homo sapiens, mean±SD): 11.8 ± 0.49 µM
SI PC-3 ([2]; versus MRC-5): 3.62
SI MCF-7 ([3]; GI50 MRC-5 / GI50 MCF-7): 4.59
activity at 4000 µg/mL ([3]; Homo sapiens, MCF7, 4 mg/ml, 48 hours, MTT): 66%
activity at 20000 µg/mL ([3]; Homo sapiens, MCF7, 20 mg/ml, 48 hours, MTT): -1%
GI50 ([3]; Homo sapiens, MCF7, mean±SD, read-out: GI50 MCF-7): 9.34 ± 0.92 µM
GI50 [4]: 42.9 ± 1.05 µM
GI50 ([5]; Homo sapiens, CE81T, mean±SD): 16.9 ± 1.88 µM
SI CE81T ([5]; versus MRC-5): 2.53
GI50 ([6]; mean±SD): 0.98 ± 0.27 µM
SI NCI-H611 ([6]; versus MRC-5): 43.72
AUC(0-inf) [7, 10]: 362.6 ng·h/mL
CL [7, 10]: 91.9 mL/min/kg
MRT [7, 10]: 2.5 h
Vss [7, 10]: 13.5 L/kg
Vz [7, 10]: 38.8 L/kg
Cmax ([7]; intravenous administration, 2 mg/kg, extrapolated plasma concentration at 0 hr): 1488.4 ng/mL
t1/2 ([7]; intravenous administration, 2 mg/kg, from 0.5-1.5 hr (compd. 1) or 9-27 hr (13a, 14a)): 4.9^d hr
Bioavailability ([7]; oral 20 mg/kg versus intravenous 2 mg/kg): 57.1%
AUC(0-inf) ([7]; oral administration, 20 mg/kg): 2071.6 ng·h/mL
Cmax ([7]; oral administration, 20 mg/kg): 1905.0 ng/mL
MRT ([7]; oral administration, 20 mg/kg): 3.0 h
Tmax ([7]; oral administration, 20 mg/kg): 0.5 h
t1/2 ([7]; oral administration, 20 mg/kg, from 2-6 hr (compd. 1), 2-24 hr (13a), 2-9 hr (14a)): 3.4 h
GI50 ([8]; Homo sapiens, BT-483, mean±SD): 10.2 ± 0.9 µM
SI BT483 ([8]; versus MRC-5): 4.22
GI50 ([9]; Homo sapiens, A549, mean±SD): 6.58 ± 2.99 µM
SI A549 ([9]; versus MRC-5): 6.51
